# In US20210145830A1, “MATERIALS AND METHODS FOR TREATING CANCER” (Mayo Foundation for Medical Education and Research, priority 2018, published 2021):
# “Also recorded” adds a separate entry of the source.
# Assays:
# [1] = test system: CART19; assay: CART19 cytokine release (Luminex) in the presence of TP0903; assay type: cell-based, human; details: for Th2 cytokines IL-4 and IL-5 / cytokine release syndrome (CRS) cytokines (MCP1, IL-6, IL-10, MIP-b): Jeko or CLL cells
# Description: FIG. 7 contains an exemplary timeline for a cytokine assay in the presence of TP0903. UTDs or CART19 were incubated with Jeko in the presence of TP0903 in the 1 to 1 ratio. At day 3, supernatant was harvested and analyzed by 32-plex Luminex array.
# FIG. 23. CART19 cytokine production in the presence of TP0903. CART19 cells or untransduced T cells were co-cultured with JeKo-1 cells or leukemic B cells derived from patients with chronic lymphocytic leukemia for 3 days and supernatants were analyzed for human cytokines (Luminex, 38-plex).
# FIG. 27. CART19 cytokine production in the presence of TP-0903. CART19 cells or untransduced T cells were co-cultured with JeKo-1 cells (left heat map) or leukemic B cells (right heat map) derived from patients with chronic lymphocytic leukemia for 3 days, and supernatants were analyzed for human cytokines (Luminex, 38-plex).
# Effector and target cells were incubated at a 1:1 ratio in T cell media for 24 or 72 hours as indicated. Supernatant was harvested and analyzed by 30-plex Luminex array according to the manufacturer's protocol (Millipore).
# UTDs or CART19 were incubated with Jeko cell line or primary CLL cells in the presence of TP0903, at 1:1 ratio for 3 days (FIG. 7). At the end of the experiment, supernatant was harvested and analyzed for cytokines by 30-plex multiplex. […] TP0903 suppressed critical cytokines for the development of CRS after CART cell therapy (FIG. 10).
# [2] = test system: Naïve T cells; assay: Naïve T cell proliferation assay (PMA/Ionomycin); assay type: cell-based; details: PMA 5 ng/ml + Ionomycin 0.1 μg/ml; TP0903 10-65 nM; 3 days
# Description: FIG. 21A-E. TP0903 modulates naïve T cells function upon stimulation of PMA/Ionomycin in vitro. A. Naïve T cell proliferation assay in the presence of TP0903. Naïve T cells were stimulated with 5 ng/ml of PMA and 0.1 μg/ml of Ionomycin in the absence or in the increasing dose of TP0903 (10-65 nM) for 3 days. […] B. At the end of the expansion on day 3, T cells were stained with inhibitory receptors. […] C. Naïve T cell degranulation assay and cytokine production in the presence of TP0903. Naïve T cells were stimulated with 50 ng/ml of PMA and 1 μg/ml of Ionomycin for 4 hours in the presence of increasing doses of TP0903 (10-65 nM). […] D. Western blot analysis of p-LCK and GATA-3 inhibition by TP0903 in naïve T cells. Naïve T cells were stimulated with 5 ng/ml of PMA and 0.1 ug/ml of Ionomycin in the absence (DMSO) or in the increasing dose of TP0903 (10-65 nM) for 24 hours. […] was used as loading control. E. TP0903 specifically reduces regulatory T cells (Treg). Effector T cells (Teff) were isolated by negative selection using RoboSep™ Human T Cell Isolation Kit (Stemcell Technologies). Tregs were isolated by negative selection using the human CD4^+CD127^lowCD25^+ Treg isolation kit (Stemcell Technologies). Teff and Treg were stimulated with anti-CD3/CD28 beads and 400 U/ml of IL-2. At day 5, total T cells were evaluated via CountBright quantification.
# [3] = test system: p-LCK, p38MAPK, GATA-3, T-bet in CART19 cells; assay: Western blot of signaling molecules in stimulated CART19 cells; assay type: cell-based
# [4] = 3 days, supernatant, listed as TP-0903
# [5] = stimulated CART cells (FIG. 18)
smiles,measurement,setting,value
CN1CCN(Cc2ccc(Nc3ncc(Cl)c(Nc4ccccc4S(=O)(=O)N(C)C)n3)cc2)CC1 [TP0903],"CART Th1 specific cytokines (IFN-γ, TNF-α)","[1]; 1:1 with Jeko or primary CLL cells, 3 days, supernatant",only high doses (supra-physiological) suppressed; also recorded: maintains
same,IL-8,"[1]; JeKo-1 or CLL leukemic B cells, 3 days, Luminex 38-plex",downregulated
same,"cytokine production ability of IFN-γ, GM-CSF, TNF-α, and IL-2","[1]; JeKo-1 or CLL patient leukemic B cells, 3 days, Luminex 38-plex",maintained
same,Th2 cytokines IL-4 and IL-5,"[1]; 3 days, supernatant",suppresses; also recorded: significantly downregulated
same,"cytokine release syndrome (CRS) cytokines (MCP1, IL-6, IL-10, MIP-b)","[1]; 3 days, supernatant",suppresses; also recorded: reduction; also recorded: remarkably downregulated
same,Th2 cytokines IL-4 and IL-5,[1]; [4],significantly downregulated
same,"cytokine release syndrome (CRS) cytokines (MCP1, IL-6, IL-10, MIP-b)",[1]; [4],remarkably downregulated
same,Th polarization of CART cells,[1]; stimulated with JeKo or leukemic B cells from CLL patients,polarization of CART cells into a Th1 phenotype
same,T cell expansion,[2],did not interfere
same,GATA-3,[3]; [5],reduction
same,P38,[3]; [5],reduction
same,P-JNK,[3]; [5],reduction
same,T-bet,[3]; [5],reduction
same,phospho LCK,"[3]; stimulated CART cells, dose dependent (FIG. 18)",increase
